Common to all, as to type: cell-based
One assay has as its target T1, Adenosine 2a receptor (Homo sapiens, UniProt P29274).
T1 construct: expressed in transfected cells; host or cells: Chinese hamster ovary (CHO) cells, co-transfected with a CRE-SPAP reporter
The assay is described as follows: Agonist activity against adenosine 2a receptor subtype (CHO cells, cAMP response element/SPAP reporter). Conditions: EC50 ratio to NECA; transfected CHO cells, basal cAMP reflected by SPAP. The method, then: (§1) (1) Agonist Activity Against Adenosine 2a, Adenosine 1 and Adenosine 3 Receptor Subtypes.
(§2) Agonist selectivity of compounds against other human adenosine receptors is determined using Chinese hamster ovary (CHO) cells transfected with the gene for the relevant human adenosine receptor following a method based on that of Castanon and Spevak, 1994. The CHO cells are also transfected with cyclic AMP response elements promoting the gene for secreted placental alkaline phosphatase (SPAP) (Wood, 1995). The effect of test compounds may be determined by their effects on basal levels of cAMP (A2a) or on forskolin-enhanced cAMP (A1 and A3) as reflected by changes in levels of SPAP. EC50 values for compounds may then be determined as a ratio to that of the non-selective agonist N-ethyl carboxamide adenosine (NECA).
(§3) Values given in the Table are EC50 values as a ratio of that of NECA.

A further assay deals with T2, Adenosine 1 receptor (Homo sapiens, UniProt P30542).
T2 construct: expressed in transfected cells; host or cells: Chinese hamster ovary (CHO) cells, co-transfected with a CRE-SPAP reporter
T2 sequence (P30542 1-326): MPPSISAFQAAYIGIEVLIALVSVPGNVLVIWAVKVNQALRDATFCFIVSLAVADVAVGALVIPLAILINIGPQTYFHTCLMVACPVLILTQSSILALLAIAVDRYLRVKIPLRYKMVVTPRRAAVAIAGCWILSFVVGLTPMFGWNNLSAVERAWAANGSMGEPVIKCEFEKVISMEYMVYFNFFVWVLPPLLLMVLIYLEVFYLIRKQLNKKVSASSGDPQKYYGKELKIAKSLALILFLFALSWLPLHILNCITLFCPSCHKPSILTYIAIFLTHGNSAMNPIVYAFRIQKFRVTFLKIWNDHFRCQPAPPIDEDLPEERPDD
The assay is described as follows: Agonist activity against adenosine 1 receptor subtype (CHO cells, forskolin-enhanced cAMP, SPAP reporter). Conditions: EC50 ratio to NECA; transfected CHO cells, forskolin-enhanced cAMP reflected by SPAP. How it is done: as §1, §2, §3

The next assay has as its target T3, Adenosine 3 receptor (Homo sapiens, UniProt P0DMS8).
T3 construct: expressed in transfected cells; host or cells: Chinese hamster ovary (CHO) cells, co-transfected with a CRE-SPAP reporter
T3 sequence (P0DMS8 1-318): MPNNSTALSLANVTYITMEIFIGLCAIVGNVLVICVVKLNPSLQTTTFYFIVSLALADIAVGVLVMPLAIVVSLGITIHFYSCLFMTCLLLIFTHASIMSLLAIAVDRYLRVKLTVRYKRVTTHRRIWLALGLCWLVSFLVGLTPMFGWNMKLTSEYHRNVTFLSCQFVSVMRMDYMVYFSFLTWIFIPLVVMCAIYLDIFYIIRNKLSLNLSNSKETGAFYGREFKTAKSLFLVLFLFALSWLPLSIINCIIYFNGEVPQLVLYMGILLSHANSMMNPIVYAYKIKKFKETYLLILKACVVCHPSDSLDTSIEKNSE
The assay is described as follows: Agonist activity against adenosine 3 receptor subtype (CHO cells, forskolin-enhanced cAMP, SPAP reporter). Particulars: EC50 ratio to NECA; transfected CHO cells, forskolin-enhanced cAMP reflected by SPAP. The method, then: as §1, §2, §3

Where a name gives a salt, the structure may show the parent alone.

15 molecules from patent US6762170B1, “2-(purin-9-yl)-tetrahydrofuran-3,4-diol derivatives” (SmithKlineBeecham Corporation, priority 1998, dated 2004) can be followed below.

T1 sequence (P29274 whole entry): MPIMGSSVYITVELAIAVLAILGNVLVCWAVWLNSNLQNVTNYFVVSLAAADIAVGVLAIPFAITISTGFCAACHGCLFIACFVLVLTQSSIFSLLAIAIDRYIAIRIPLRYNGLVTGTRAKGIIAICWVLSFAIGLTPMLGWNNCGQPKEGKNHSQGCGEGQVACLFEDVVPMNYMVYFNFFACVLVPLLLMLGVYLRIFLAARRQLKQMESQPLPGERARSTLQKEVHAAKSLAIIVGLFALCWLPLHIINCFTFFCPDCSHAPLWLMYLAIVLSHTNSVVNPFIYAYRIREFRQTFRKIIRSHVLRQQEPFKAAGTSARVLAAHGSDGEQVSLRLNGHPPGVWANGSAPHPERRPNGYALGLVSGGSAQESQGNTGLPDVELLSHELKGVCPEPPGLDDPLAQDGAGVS

With `CCC(CC)Nc1nc(NCCN2CCCCC2)nc2c1ncn2C1OC(c2cc(CO)no2)C(O)C1O.O=CO.O=CO` [Example 57, (2R,3R,4S,5S)-2-[6-(1-Ethyl-propylamino)-2-(2-piperidin-1-yl-ethylamino)-purin-9-yl]-5-(3-hydroxymethyl-isoxazol-5-yl)-tetrahydro-furan-3,4-diol diformate], the “A2a (EC50 values as a ratio of that of NECA)” value on Adenosine 2a receptor is 0.79. Also, the “A1 (EC50 values as a ratio of that of NECA)” value at Adenosine 1 receptor is given as 80.76. Moreover, on Adenosine 3 receptor, the “A3 (EC50 values as a ratio of that of NECA)” value is over 525.
Turning to `CCCc1cc(C2OC(n3cnc4c(NC(CC)CC)nc(NCCN5CCCCC5)nc43)C(O)C2O)on1.O=CO.O=CO` [Example 56, (2R,3R,4S,5S)-2-[6-(1-Ethyl-propylamino)-2-(2-piperidin-yl-ethylamino)-purin-9-yl]-5-(3-propyl-isoxazol-5-yl)-tetrahydro-furan-3,4-diol diformate], the “A2a (EC50 values as a ratio of that of NECA)” value at Adenosine 2a receptor is reported as 5.19. For the same molecule, the “A1 (EC50 values as a ratio of that of NECA)” value on Adenosine 1 receptor worked out at 101.31. Besides, the “A3 (EC50 values as a ratio of that of NECA)” value on Adenosine 3 receptor is given as over 525.
Consider `CCc1cc([C@H]2O[C@@H](n3cnc4c(NC(CC)CC)nc(NCCc5cn(C)cn5)nc43)[C@H](O)[C@@H]2O)on1.O=CO.O=CO` [Example 5, (2S,3S,4R,5R)-2-(3-Ethyl-isoxazol-5-yl)-5-{6-(1-ethyl-propylamino)-2-[2-(1-methyl-1H-imidazol-4-yl)-ethylamino]-purin-9-yl}-tetrahydro-furan-3,4-diol diformate], for which the “A2a (EC50 values as a ratio of that of NECA)” value at Adenosine 2a receptor is listed as 0.11. Also, the “A1 (EC50 values as a ratio of that of NECA)” value at Adenosine 1 receptor is given as 30.1. In addition, on Adenosine 3 receptor, the “A3 (EC50 values as a ratio of that of NECA)” value is over 237.
As for `CCc1cc([C@H]2O[C@@H](n3cnc4c(NCC(c5ccccc5)c5ccccc5)nc(N[C@H]5CC[C@H](N)CC5)nc43)[C@H](O)[C@@H]2O)on1.O=CO.O=CO` (relative stereo) [Example 19, (2R,3R,4S,5S)-2-[2-(trans-4-Amino-cyclohexylamino)-6-(2,2-diphenyl-ethylamino)-purin-9-yl]-5-(3-ethyl-isoxazol-5-yl)-tetrahydro-furan-3,4-diol diformate], at Adenosine 2a receptor, the “A2a (EC50 values as a ratio of that of NECA)” value was found to be 2.41. The “A1 (EC50 values as a ratio of that of NECA)” value on Adenosine 1 receptor is given as 670.2. Also, the “A3 (EC50 values as a ratio of that of NECA)” value at Adenosine 3 receptor is reported as over 295.
For “(2R,3R,4S,5S)-2-[2-Ethylamino-6-(3-iodo-benzylamino)-purin-9-yl]-5-(3-ethyl-isoxazol-5-yl)-tetrahydro-furan-3,4-diol formate [Example 66]” the same measures were 8.32, 189.98 and over 262.
Consider `CCc1cc(C2OC(n3cnc4c(NC(CO)C(C)C)nc(NCCN5CCCC5)nc43)C(O)C2O)on1` [Example 69, (2S,3S,4R,5R)-2-(3-Ethyl-isoxazol-5-yl)-5-[6-(1S-hydroxymethyl-2-methyl-propylamino)-2-(2-pyrrolidin-1-yl-ethylamino)-purin-9-yl]-tetrahydro-furan-3,4-diol diformate], for which the “A2a (EC50 values as a ratio of that of NECA)” value on Adenosine 2a receptor was 23.73. Besides, the “A1 (EC50 values as a ratio of that of NECA)” value on Adenosine 1 receptor stood at 298.75. In addition, at Adenosine 3 receptor, the “A3 (EC50 values as a ratio of that of NECA)” value is recorded as over 180.
`CCc1cc([C@H]2O[C@@H](n3cnc4c(NC5CCSCC5)nc(NCCN5CCCCC5)nc43)[C@H](O)[C@@H]2O)on1.O=CO.O=CO` [Example 12, (2S,3S,4R,5R)-2-(3-Ethyl-isoxazol-5-yl)-5-[2-(2-piperidin-1-yl-ethylamino)-6-(tetrahydro-thiopyran-4-ylamino)-purin-9-yl]-tetrahydro-furan-3,4-diol diformate]: the “A2a (EC50 values as a ratio of that of NECA)” value on Adenosine 2a receptor turned out to be 3.39. Also, at Adenosine 1 receptor, the “A1 (EC50 values as a ratio of that of NECA)” value is reported as 260.3. In addition, on Adenosine 3 receptor, the “A3 (EC50 values as a ratio of that of NECA)” value is on record as over 410.
Consider `CCc1cc(C2OC(n3cnc4c(NCc5cccc(I)c5)nc(NCCc5cn(C)cn5)nc43)C(O)C2O)on1.O=CO.O=CO` [Example 20, (2S,3S,4R,5R)-2-(3-Ethyl-isoxazol-5-yl)-5-{6-(3-iodo-benzylamino)-2-[2-(1-methyl-1H-imidazol-4-yl)-ethylamino]-purin-9-yl}-tetrahydro-furan-3,4-diol diformate], for which the “A2a (EC50 values as a ratio of that of NECA)” value on Adenosine 2a receptor worked out at 2.04. Besides, the “A1 (EC50 values as a ratio of that of NECA)” value at Adenosine 1 receptor is given as 310.9. Besides, the “A3 (EC50 values as a ratio of that of NECA)” value on Adenosine 3 receptor is reported as over 267.
For the molecule `CCc1cc(C2OC(n3cnc4c(NCc5ccccc5)nc(NCCN5CCCCC5)nc43)C(O)C2O)on1.O=CO.O=CO` [Example 44, (2R,3R,4S,5S)-2-[6-Benzylamino-2-(2-piperidin-1-yl-ethylamino)-purin-9-yl]-5-(3-ethyl-isoxazol-5-yl)-tetrahydro-furan-3,4-diol diformate], the “A2a (EC50 values as a ratio of that of NECA)” value at Adenosine 2a receptor was found to be 10.3. Also, on Adenosine 1 receptor, the “A1 (EC50 values as a ratio of that of NECA)” value came to 725.4. Further, the “A3 (EC50 values as a ratio of that of NECA)” value at Adenosine 3 receptor was over 221.
For the molecule `CCc1cc(C2OC(n3cnc4c(NC(CC)CC)nc(NC5CCN(Cc6ccccc6)C5)nc43)C(O)C2O)on1` [Example 49, (2R,3R,4S,5S)-2-[2-(1-Benzyl-pyrrolidin-3S-1-ylamino)-6-(1-ethyl-propylamino)purin-9-yl]-5-(3-ethyl-isoxazol-5-yl)-tetrahydro-furan-3,4-diol formate], the “A2a (EC50 values as a ratio of that of NECA)” value on Adenosine 2a receptor is on record as 7.79. Moreover, the “A1 (EC50 values as a ratio of that of NECA)” value at Adenosine 1 receptor worked out at 28.28. For the same molecule, the “A3 (EC50 values as a ratio of that of NECA)” value at Adenosine 3 receptor is recorded as over 350.
With `CCc1cc(C2OC(n3cnc4c(NC(CC)CC)nc(NC5CCNC5)nc43)C(O)C2O)on1` [Example 36, (2S,3S,4R,5R)-2-(3-Ethyl-isoxazol-5-yl)-5-[6-(1(-ethyl-propylamino)-2-(pyrrolidin-3R-ylamino)-purin-9-yl]-tetrahydro-furan-3,4-diol diformate], the “A2a (EC50 values as a ratio of that of NECA)” value on Adenosine 2a receptor was 4.7. Besides, the “A1 (EC50 values as a ratio of that of NECA)” value on Adenosine 1 receptor was determined as 68.32. At Adenosine 3 receptor, the “A3 (EC50 values as a ratio of that of NECA)” value is given as over 207.
For `CCc1cc(C2OC(n3cnc4c(NC(CO)Cc5ccccc5)nc(NCCN5CCCC5)nc43)C(O)C2O)on1` [Example 63, (2S,3S,4R,5R)-2-(3-Ethyl-isoxazol-5-yl)-5-[6-(1S-hydroxymethyl-2-phenyl-ethylamino)-2-(2-pyrrolidin-1-yl-ethylamino)-purin-9-yl]-tetrahydro-furan-3,4-diol diformate] the same measures were 10.57, 148.43 and over 262.
For `CCc1cc(C2OC(n3cnc4c(NCCC(C)(C)C)nc(NCCN5CCOCC5)nc43)C(O)C2O)on1` [Example 42, (2R,3R,4S,5S)-2-[6-(3,3-Dimethyl-butylamino)-2-(2-morpholin-4-ethylamino)-purin-9-yl]-5-(3-ethyl-isoxazol-5-yl)-tetrahydro-furan-3,4-diol diformate]] the same measures were 41.06, 1369.08 and over 395.
For `CCc1cc(C2OC(n3cnc4c(NCC(c5ccccc5)c5ccccc5)nc(NC5CCC(NC(C)=O)CC5)nc43)C(O)C2O)on1` (stereo not drawn) [Example 24, N-(4-{6-(2,2-Diphenyl-ethylamino)-9-[5S-(3-ethyl-isoxazol-5-yl)-3R,4S-dihydroxy-tetrahydro-furan-2R-yl]-9H-purin-2-ylamino}-cyclohexyl)-acetamide formate] the same measures were 0.23, 573.6 and over 248.
As for `CCc1cc(C2OC(n3cnc4c(Nc5ccc(O)c(F)c5)nc(NCCN5CCCCC5)nc43)C(O)C2O)on1.O=CO.O=CO` [Example 10, (2S,3S,4R,5R)-2-(3-Ethyl-isoxazol-5-yl)-5-[6-(3-fluoro-4-hydroxy-phenylamino)-2-(2-piperidin-1-yl-ethylamino)-purin-9-yl]-tetrahydro-furan-3,4-diol diformate], the “A2a (EC50 values as a ratio of that of NECA)” value at Adenosine 2a receptor stood at 2.07. For the same molecule, the “A1 (EC50 values as a ratio of that of NECA)” value on Adenosine 1 receptor is reported as 59.38. The “A3 (EC50 values as a ratio of that of NECA)” value on Adenosine 3 receptor is listed as over 180.
